Patent US20200299777A1, “Methods for Resensitizing p53-Null Cells to Cancer Chemotherapy” (UNIVERSITY OF SOUTH CAROLINA, priority 2019, published 2020)

Tests used:
[1] = tested on: TP53-WT hESCs; test: Cell viability assay (resazurin), TP53 wild-type human ES cells; type: cell-based; conditions: for sensitivity of TP53-WT hESCs (cell viability): all tested concentrations
Procedure: (§1) Human H9 embryonic stem cells (ESCs) (Lot No.: WIC-WA09-MB-001, WiCell, Wisconsin) and derivatives were maintained at 37° C., 5% CO2 in chemical-defined medium TeSR-E8 medium (Stemcell Tech.) with 100 U/ml penicillin & 100 μg/ml streptomycin (Gibco) on Matrigel-coated (# CB40230A, Corning) tissue culture vessels. Authentication of H9 ESCs were performed by WiCell. ESCs were passaged every 4 to 6 days to maintain sub-confluence using 0.5 mM EDTA as described previously. Human colon cancer RKO cells (kindly given by Dr. Bert Vogelstein) and its derivatives were maintained at 37° C., 5% CO2 in McCoy's 5A media (Fisher) supplemented with 10% FBS and 100 U/ml penicillin & 100 μg/ml streptomycin (Gibco). RKO cells were passaged every 3 to 4 days to maintain sub-confluence (authentication of RKO cell line was performed by JHU-GRCF Biorepository & Cell Center). Cells were screened for mycoplasma before experiments using a MycoAlert™ Mycoplasma Detection Kit (Lonza).
(§2) NCI Approved Oncology Drug Set IV containing 127 FDA-approved anticancer drugs was obtained from the NCI under a material transfer agreement. TP53 knockout or wild-type human ES cells were seeded in 96-well microplates in E8 medium, with 6,000 cells per well that would reach about 85% confluent at the end of the assay. Human ES cells were plated one day before treatment with a 7-point two-fold dilution series (starting with 10 μM) of each compound or solvent (dimethyl sulfoxide, DMSO or Dimethylformamide, DMF) control. After 72 hours incubation, cells were stained with 35 μM resazurin (Sigma), then quantification of fluorescent signal intensity was performed on Thermo Fluorskan™ Ascent plate reader at excitation and emission wavelengths of 544/590 nm. Data were normalized to the solvent control (DMSO or DMF) group. The area under a curve (AUC) was calculated using auc function (flux package) in R. The two-side t-test was performed with tlest function in R. The hierarchical clustering analysis of drugs AUC pattern in different samples was carried out using heatmap.2 function (gplots package) in R (All R code available). Viability response curves of Cisplatin and Paclitaxel on TP53-KO hESCs or RKO cells were generated using drc package (Analysis of Dose-Response Curves) in R.

[2] = tested on: TP53-KO hESCs; test: Cell viability assay (resazurin), TP53 knockout human ES cells; type: cell-based; conditions: for sensitivity/resistance of TP53-KO hESCs (cell viability): 7-point two-fold dilution starting with 10 μM
Procedure: as §1
TP53 knockout hESCs and RKO cells were generated using CRISPR/Cas9 as described previously with minor modifications. Briefly, human codon-optimized Streptococcus pyogenes wild type Cas9 (Cas9-2A-GFP) was obtained from Addgene (#44719). Chimeric guide RNA expression cassettes with different small guide RNA, TP53_Up_sgRNA: 5′-[…]-3′ (SEQ ID NO: 1) and TP53_Down_sgRNA: 5′-[…]-3′ (SEQ ID NO: 2) were ordered as gBlock. These gBlocks were amplified by PCR using primers: gBlock_Amplifying_F: 5′-[…]-3′ (SEQ ID NO: 3) and gBlock_Amplifying_R: 5′-[…]-3′ (SEQ ID NO: 4). The PCR product was purified by Agencourt Ampure XP PCR Purification beads according to manufacturer's protocol (Beckman Coulter). 1.5 μg of Cas9 plasmid and 0.5 μg of each gRNAgBlock were co-transfected into hESCs via Lipofectamine™ 3000 (Thermo Fisher Scientific). […] For TP53-KO RKO cells, single clones were picked up and validated by PCR and Western blotting.
as §2

[3] = tested on: TP53-KO RKO cells; test: Cisplatin viability response on TP53 knockout RKO colon cancer cells; type: cell-based, human
Procedure: as §1, with “RKO cells were passaged every 3 to 4 days to maintain sub-confluence (authentication of RKO cell line was performed by JHU-GRCF Biorepository & Cell Center). Cells were screened for mycoplasma before experiments using a MycoAlert™ Mycoplasma Detection Kit (Lonza).” left out
NCI Approved Oncology Drug Set IV containing 127 FDA-approved anticancer drugs was obtained from the NCI under a material transfer agreement. […] After 72 hours incubation, cells were stained with 35 μM resazurin (Sigma), then quantification of fluorescent signal intensity was performed on Thermo Fluorskan™ Ascent plate reader at excitation and emission wavelengths of 544/590 nm. […] The area under a curve (AUC) was calculated using auc function (flux package) in R. The two-side t-test was performed with tlest function in R. The hierarchical clustering analysis of drugs AUC pattern in different samples was carried out using heatmap.2 function (gplots package) in R (All R code available). […]

[4] = tested on: TP53-KO hESCs; test: Paclitaxel and Cisplatin drug synergy experiment on TP53-KO hESCs; type: cell-based, human; conditions: low concentration Paclitaxel plus Cisplatin matrix, 72 hours, ZIP synergy model
Procedure: (§3) A Paclitaxel and Cisplatin drug matrix (12×8) in a 96-well plate was made for drug synergy experiment. Paclitaxel on row was an 11-point two-fold dilution series with starting concentration of 0.0016 μM, and Cisplatin on column was a 7-point two-fold dilution series with starting concentration of 2 μM, 5000 TP53-KO hESCs per well or 2000 TP53-KO RKO cells per well were plated on three 96-well plates one day before treatment with Paclitaxel and Cisplatin drug matrix. After 72 hours incubation for TP53-KO hESCs and 96 hours incubation for TP53-KO RKO cells, cells were stained with 35 μM resazurin (Sigma), then quantification of fluorescent signal intensity was performed on Thermo Fluorskan™ Ascent plate reader at excitation and emission wavelengths of 544/590 nm. The drug synergy scores were evaluated using ZIP model (Zero Interaction Potency model) in synergyfinder package.

[5] = tested on: TP53-KO RKO cells; test: Paclitaxel and Cisplatin drug synergy experiment on TP53-KO RKO cells; type: cell-based, human; conditions: Paclitaxel plus Cisplatin matrix, 96 hours, two TP53-KO clones, ZIP synergy model
Procedure: as §3

[6] = tested on: ZNF207/BuGZ knockout TP53-KO hESCs; test: Validation of ZNF207/BuGZ knockout in Cas9-expressing TP53-KO hESCs treated with Cisplatin (qPCR of knockout locus); type: cell-based, human
Procedure: Human TP53 knockout embryonic stem cells were infected at low MOI by viruses produced using pCLIP-Cas9-Nuclease-EFS-Blast (TransOMIC) and selected using blastcidin (10 μg/ml). The stable Cas9-expressing TP53-KO hESCs were infected with viruses with two sgRNAs against gene ZNF207/BuGZ (# TEDH-1090944, TransOMIC) or control gene OR1C1 (# TEDH-1055091, TransOMIC). These two sgRNAs could induce fragment deletion. We treated these cells with either 200 nM Cisplatin or vehicle DMF. We used realtime quantitative PCR to quantify the ZNF207 knockout locus, using gRNA flanking primers that only amplify when the intervening sequence has been deleted.
The relative percentage of ZNF207 or OR1C1 knockout cell number was defined as:
2^−ΔCT(Gene−LINE)/2^−ΔCT(Gene−LINE) at Day0.

[7] = tested on: TP53-WT hESCs; test: Cell viability assay (resazurin), TP53 wild-type human ES cells; type: cell-based; conditions: 200 nM
[8] = 72 hours, resazurin, low concentrations

## CCCCCOC(=O)Nc1nc(=O)n([C@@H]2O[C@H](C)[C@@H](O)[C@H]2O)cc1F [Capecitabine]
[1]; 72 hours, resazurin
  sensitivity of TP53-WT hESCs (cell viability): resistant
[2]; 72 hours, resazurin
  sensitivity/resistance of TP53-KO hESCs (cell viability): resistant

## O=C(c1cc(Cc2n[nH]c(=O)c3ccccc23)ccc1F)N1CCN(C(=O)C2CC2)CC1 [Olaparib]
[1]; 72 hours, resazurin
  sensitivity of TP53-WT hESCs at low concentration (cell viability): very sensitive
[2]; 72 hours, resazurin
  sensitivity/resistance of TP53-KO hESCs (cell viability): resistant

## N.N.[Cl][Pt][Cl] [Cisplatin]
[1]; 72 hours, resazurin
  sensitivity of TP53-WT hESCs at low concentration (cell viability): very sensitive
[2]; 200 nM
  resistance of TP53-KO hESCs at the optimal concentration: very resistant
[2]; 72 hours, resazurin
  sensitivity/resistance of TP53-KO hESCs (cell viability): resistant
[3]
  resistance of TP53-KO RKO cells compared to TP53-WT RKO cells: resistant
[4]
  inhibition of Cisplatin on TP53-KO hESCs in combination with Paclitaxel: increased
[5]
  inhibition of Cisplatin on TP53-KO RKO cells in combination with Paclitaxel: increased greatly
[6]; 200 nM vs vehicle DMF, two more TP53-KO hESC lines
  sensitivity of ZNF207/BuGZ knockout TP53-KO hESCs: more sensitive
[6]; 200 nM, ten days, qPCR at day 6 and 10
  depletion of ZNF207/BuGZ knockout cells versus DMF vehicle control: depleted faster
[7]
  sensitivity of TP53-WT hESCs at the optimal concentration: very sensitive

## CC(=O)O[C@@]12CO[C@@H]1C[C@H](O)[C@@]1(C)C(=O)[C@H](O)C3=C(C)[C@@H](OC(=O)[C@H](O)[C@@H](NC(=O)OC(C)(C)C)c4ccccc4)C[C@@](O)([C@@H](OC(=O)c4ccccc4)[C@H]21)C3(C)C [Docetaxel]
[1]; 72 hours, resazurin
  sensitivity of TP53-WT hESCs (cell viability): sensitive
[2]; 72 hours, resazurin
  sensitivity/resistance of TP53-KO hESCs (cell viability): sensitive

## O=C1[O][Pt]2([NH][C@@H]3CCCC[C@H]3[NH]2)[O]C1=O [Oxaliplatin]
[1]; 72 hours, resazurin
  sensitivity of TP53-WT hESCs at low concentration (0.16 μM): very sensitive
[2]; 72 hours, resazurin
  sensitivity/resistance of TP53-KO hESCs (cell viability): resistant

## CCc1c2c(nc3ccc(OC(=O)N4CCC(N5CCCCC5)CC4)cc13)-c1cc3c(c(=O)n1C2)COC(=O)[C@]3(O)CC [Irinotecan]
[1]; 72 hours, resazurin
  sensitivity of TP53-WT hESCs at low concentration (0.16 μM): very sensitive
[2]; 72 hours, resazurin
  sensitivity/resistance of TP53-KO hESCs (cell viability): resistant

## N.N.O=C([O-])C1(C(=O)[O-])CCC1.[Pt+2] [Carboplatin]
[1]; 72 hours, resazurin
  sensitivity of TP53-WT hESCs at low concentration (cell viability): very sensitive
[2]; 72 hours, resazurin
  sensitivity/resistance of TP53-KO hESCs (cell viability): resistant

## O=c1[nH]cc(F)c(=O)[nH]1 [Fluorouracil]
[1]; 72 hours, resazurin, high concentrations
  sensitivity of TP53-WT hESCs at high concentrations: sensitive
[1]; [8]
  resistance of TP53-WT hESCs at low concentrations: resistant
[2]; [8]
  resistance of TP53-KO hESCs at low concentrations: resistant

## COc1ccc(C2=N[C@@H](c3ccc(Cl)cc3)[C@@H](c3ccc(Cl)cc3)N2C(=O)N2CCNC(=O)C2)c(OC(C)C)c1 [Nutlin-3a]
[1]; very low concentrations
  growth inhibitory effect on TP53-WT hESCs: severely growth arrested

## CC(=O)O[C@H]1C(=O)[C@@]2(C)[C@H]([C@H](OC(=O)c3ccccc3)[C@]3(O)C[C@H](OC(=O)[C@H](O)[C@@H](NC(=O)c4ccccc4)c4ccccc4)C(C)=C1C3(C)C)[C@]1(OC(C)=O)CO[C@@H]1C[C@@H]2O [Paclitaxel]
[1]; 72 hours, resazurin
  sensitivity of TP53-WT hESCs (cell viability): sensitive
[2]; 72 hours, resazurin
  sensitivity/resistance of TP53-KO hESCs (cell viability): sensitive
